How the values were obtained:
[1] = Solubility in aqueous solvents; assay type: physicochemical
poly(rI) = assay: Tm (UV melting) control experiment with poly(rI); assay type: binding; conditions: conditions as FIG. 1; dash with footnote b = no melting above 20° C. was observed
Protocol: (§1) FIG. 1 is a melting point curve for compound (3a) and poly (rA), (sigmoid curve with inflection at 53° C.) poly (rU) (rising straight line plot) and poly (dA) (falling straight line plot) Conditions: 10 mM sodium phosphate buffer pH 7.0; 150 mM NaCl; 1.0 μM (3a); ratio of T:A=1:1, 20% hypochromicity.
(§2) Poly(rA) (Mr˜7×10^6) and poly(rU) (Mr<9×10^5) was obtained from Fluka AG. Poly(dA) (Mr˜9.19×10^5) was obtained from Amersham Pharmacia Biotech. Poly(rI) was obtained from Sigma. The oligonucleotide, (dA)10 and fluorescent labelled (dA)10 was obtained in deprotected and hplc-purified form. All nucleic acids and oligonucleotides were used as received without further treatment.
(§3) The concentration of oligonucleotide, nucleic acid and cPNA solutions was determined from the absorbance at 260 nm (OD260). […]
(§4) Tm experiments were performed on a CARY 100 UV Spectrophotometer (Varian Ltd.) equipped with a thermal melt system. The sample for Tm measurement was prepared by mixing calculated amounts of stock oligonucleotide and cPNA solutions together to give final concentration of nucleotides and sodium phosphate buffer (pH 7.0) and the final volumes were adjusted to 3.0 mL by addition of deionized water. […] The OD260 was recorded in steps from 20-95° C. […] The results were normalized by dividing the absorbance at each temperature by the initial absorbance. […]

poly(rA) [2] = assay: Circular dichroism spectroscopy of mixture with poly(rA); assay type: binding; conditions: 10 mM sodium phosphate buffer pH 7.0; 200-300 nm
Protocol: (§5) FIG. 2A is a CD spectra of mixture of poly(rA) and (3a) at different equivalents of T; inset: plot of ε260 versus equivalents of T; FIG. 2B is a CD spectra of mixture of poly(dA) and (3a) at different equivalents of T. Conditions 10 mM sodium phosphate buffer pH 7.0. The concentration of poly (rA) and poly (dA) was 10 μM based on AMP.
(§6) All CD experiments were performed on a JASCO Model J-710/720 spectropolarimeter (Oxford Centre of Molecular Sciences, Oxford). The samples were prepared by mixing calculated amounts of stock oligonucleotide and cPNA solutions together in a 10 mm quartz cell and the final volumes were adjusted to 2.00 mL by addition of deionized water containing an appropriate amount of sodium phosphate buffer pH 7.0 to give the final AMP concentration of 5 mM and phosphate buffer of 10 mM. The spectra were measured at 20° C. from 300 to 200 nm and averaged 4 times then subtracted from a spectrum of pure water under the same conditions.

[3] = system: fluorescent labelled (dA)10; assay: Gel electrophoresis with fluorescent labelled (dA)10; assay type: binding; conditions: F(dA)10:cPNA 1:1 to 1:10; 20% polyacrylamide gel, 90 mM TBE
Source text: The gel electrophoresis apparatus used was a SE6000 Vertical Slab Gel Electrophoresis Unit (Hoefer Scientific Instruments). The gel dimensions were 10×9.5×0.075 cm. The DC power sources was an Electrophoresis power supply model EPS-301 (Amersham Pharmacia Biotech). Acrylamide and N,N-methylene bisacrylamide were obtained as a concentrated aqueous stock solution from Fluka AG. Ammonium persulfate (electrophoresis grade) was obtained from Sigma Chemical Co. Tetramethylethylenediamine (TEMED) (electrophoresis grade) and hemicals necessary for preparing buffers were of the highest purity available from BDH. The stock 0.90 M Tris-Borate-EDTA (TBE) buffer pH 8.3 and the loading buffer (30% glycerol, 0.025% bromophenol blue and 0.025% xylene cyanol FF in 90 mM TBE as well as the 20% polyacrylamide gel in 90 mM TBE was prepared according to the literature (see Essential Molecular Biology, A Practical Approach, Vol 1, Oxford, 1991, pp 89-126).
The sample was prepared by mixing calculated amounts of the fluorescent labelled (dA)10 and PNA concentrated stock solutions in an Eppendorf tube to give the final total amounts of AMP ˜1 nmol and the molar ratio of F(dA)10:cPNA=1:1, 1:2, 1:3, 1:5 and 1:10. […]

poly(rU) = assay: Tm (UV melting) control experiment with poly(rU); assay type: binding; conditions: conditions as FIG. 1; dash with footnote b = no melting above 20° C. was observed
Protocol: as §1, §2, §3, §4

poly(rA) [4] = assay: Tm (UV melting) measurement of hybrid with poly(rA); assay type: binding
Protocol: as §1, §2, §3, §4

poly(dA) [5] = assay: Circular dichroism spectroscopy of mixture with poly(dA); assay type: binding; conditions: 10 mM sodium phosphate buffer pH 7.0; same conditions as poly(rA)
Protocol: as §5, §6

poly(dA) [6] = assay: Tm (UV melting) measurement of hybrid with poly(dA); assay type: binding; conditions: conditions as FIG. 1 (10 mM sodium phosphate pH 7.0; 150 mM NaCl; T:A=1:1); dash with footnote b = no melting above 20° C. was observed
Protocol: as §1, §2, §3, §4

Substance	achievable concentration in aqueous solvents [1]	solubility in aqueous solvents [1]	Tm of hybrid with poly(rI) (poly(rI))	change in CD signal on addition to poly(rA) (poly(rA) [2])	binding to (dA)10 in gel electrophoresis [3]	Tm of hybrid with poly(rU) (poly(rU))	Tm of hybrid with poly(rA) (poly(rA) [4]; 10 mM sodium phosphate buffer pH 7.0, 150 mM NaCl, 1.0 μM (3a), T:A=1:1)	binding to poly(rA) at high salt concentration (poly(rA) [4]; 1.0 M NaCl)	change in CD signal on addition to poly(dA) (poly(dA) [5])	Tm of hybrid with poly(dA) (poly(dA) [6])
H-[(ψ-CH2)Gly-D-Pro(T)]10-LysNH2 [(3a)]	exceeding 5 mg/mL	freely soluble in aqueous solvents	no observable melting curve	strong induced CD signal with a minima at 275 nm	lack of binding	no observable melting curve	53 °C	no binding	no significant change	
H-[Acg(T)]10-LysNH3 [(1a)]										73 °C
H-[Gly-o-Pro(cis-τ)]10-LysNH, [(2a)]										70 °C

— patent US6716961B2, “Chiral peptide nucleic acids with a N-aminoethyl-d-proline backbone” (ISIS Innovation Limited, priority 2001, dated 2004)
